Patent US20190192517A1, “TREATMENT OF SQUAMOUS CELL CARCINOMAS WITH INHIBITORS OF ERK” (Kura Oncology, Inc., priority 2016, published 2019)

Key:
ERK2 enzyme = biological target: T1, ERK2 enzyme (Homo sapiens, UniProt P28482); assay: Inhibition assay of ERK (Z'-LYTE kinase assay, Ser/Thr 3 peptide, 100 μM ATP); assay type: biochemical; conditions: in vitro
T1 construct: purchased Life Technologies
Protocol: Example 9: Inhibition Assays of ERK. The inhibition of ERK activity by the compounds disclosed herein was determined using the Z′-LYTE kinase assay kit (Life Technologies) with a Ser/Thr 3 peptide substrate (Life Technologies) according to manufacturer's instructions. […] The IC50 values for the compounds were determined with 3-fold serial dilutions in duplicate. The compounds were first diluted in 1:3 dilutions in 100% DMSO at 100× the desired concentration, and then further diluted (1:25) in 20 mM HEPES buffer (Invitrogen) to make 4× solutions prior to adding to the enzyme solution. The final DMSO concentration in the assay was 1%. Final reaction volume was […] in 384-well plates. Kinase reactions were conducted for 1 hour followed by the assay development reaction (1 hour) in a 384 well plate format (20 μL/well).

[1] = tested on: LU0009 primary human NSCLC tissues; assay: Patient-derived xenograft model of squamous NSCLC: LU0009; assay type: in vivo, human (in BALB/C nude mice); conditions: Q2D or 2QW schedules
Protocol: (§1) Example 1: Efficacy studies in patient-derived xenograft models of squamous NSCLC. Tumor fragments (2-4 mm in diameter) from stock mice inoculated with LU1868 or LU0009 primary human NSCLC tissues were inoculated subcutaneously into BALB/C nude mice. The mice were stratified into groups when the average tumor size reached about 200 mm^3. […] Tumor volumes were measured twice weekly in two dimensions using a caliper, with volume expressed in mm^3 (mean+/−SEM) using the formula […], where a and b are the long and short diameters of the tumor, respectively.
(§2) Responses were classified as “tumor stasis” if tumors grew ≤10% during the dosing period. Many SCC patient-derived xenograft models retain comorbid properties of the original tumors from which they were derived, such as induction of cachexia and spontaneous ulceration, that negatively impact the physiology of the host animal and reduce tolerability to exogenous agents, such as therapeutic drugs. […] Dosing holidays were necessary during periods when the mouse had lost ≥10% of body weight until the weight of the mouse returned to baseline. […] Where TGI was 70-85% and no doses were missed, activity was classified as “borderline”, and any TGI levels below 70% were classified as “resistant”.

[2] = tested on: HN3067 primary human HNSCC tissues; assay: Patient-derived xenograft model of HNSCC: HN3067; assay type: in vivo, human (in BALB/C nude mice)
Text: Example 6: Efficacy studies in patient-derived xenograft models of HNSCC. The general procedure outline in Example 1 was followed. […] Dosing was discontinued to observe tumor regrowth.

[3] = tested on: HN1391 primary human HNSCC tissues; assay: Patient-derived xenograft model of HNSCC: HN1391; assay type: in vivo, human (in BALB/C nude mice)
Protocol: Example 5: Efficacy studies in patient-derived xenograft modes of HNSCC. The general procedure outline in Example 1 was followed. […] Dosing was discontinued to observe tumor regrowth, then restarted on the same dosing schedule on day 56. […] This activity was maintained for 25 days on treatment at either 120 mg/kg Q2D or 300 mg/kg QW. When dosing was discontinued, tumor stasis was maintained for 10-20 days, but eventually all of the tumors regrew. Regrowth was allowed to proceed for 2-3 weeks, until some individual tumors exceeded 1600 mm^3, then therapy was restarted. Strikingly, all of the retreated tumors regressed, decreasing in size by 27-66% in the subsequent 35 days.

[4] = tested on: HN2221 primary human HNSCC tissues; assay: Patient-derived xenograft model of HNSCC: HN2221; assay type: in vivo, human (in BALB/C nude mice); conditions: weekly dosing
Protocol: (§3) Example 3: Efficacy studies in patient-derived xenograft models of HNSCC. The general procedure outline in Example 1 was followed. […] Gene copy number and gene expression were assessed as described in Example 1.

[5] = tested on: ES0215 primary human ESCC tissues; assay: Patient-derived xenograft model of ESCC: ES0215; assay type: in vivo, human (in BALB/C nude mice); conditions: Q2D or QW schedules
Protocol: (§4) Example 2: Efficacy studies in patient-derived xenograft models of ESCC. The general procedure outline in Example 1 was followed. […] Gene copy number and gene expression were assessed as described in Example 1.

[6] = tested on: ES0191 primary human ESCC tissues; assay: Patient-derived xenograft model of ESCC: ES0191; assay type: in vivo, human (in BALB/C nude mice); conditions: weekly schedule
Protocol: as §4

[7] = tested on: HNSCC patient-derived xenograft models exhibiting CCND1 amplification; assay: Efficacy studies in patient-derived xenograft models of HNSCC (Example 14); assay type: in vivo, human (in BALB/C nude mice); conditions: 300-350 mg/kg QW PO
Text: Example 14: Efficacy studies in patient-derived xenograft models of HNSCC. The general procedure outline in Example 1 was followed.

[8] = tested on: HN0635 primary human HNSCC tissues; assay: Patient-derived xenograft model of HNSCC: HN0635; assay type: in vivo, human (in BALB/C nude mice); conditions: Q2D or QW schedules
Protocol: as §3

[9] = tested on: LU1868 primary human NSCLC tissues; assay: Patient-derived xenograft model of squamous NSCLC: LU1868; assay type: in vivo, human (in BALB/C nude mice); conditions: daily and Q2D dosing schedules
Protocol: as §1, §2

A375 NRAS Q61R = assay: Models of clinical B-Raf and MEK inhibitor resistance, CellTiter-Glo 72 hours: A375 NRAS Q61R; assay type: cell-based; conditions: Homo sapiens, A-375
Protocol: (§5) Example 11: Efficacy studies in models of clinical B-Raf and MEK inhibitor resistance. Human melanoma cell lines were obtained from ATCC or DSMZ (e.g., A375, MM383 BRAF V600E and MM127 NRAS Q61R). A375 cells were engineered to overexpress LacZ, BRAF V600E (BRAF V600E amp), or the NRAS mutant NRAS Q61R. The cell lines were grown to confluency, washed with Tumor Cell Media (DMEM+10% FBS or IMDM+20% FBS), and plated in 90 μL Tumor Cell Media at 5,000-10,000 cells/well. […] Plates were incubated for 72 hours at 37° C. and 5% CO2. A volume of 100 μL of CellTiter-Glo® reagent was added to each well and plates were mixed for 2 minutes on an orbital shaker. The plates were allowed to stand at room temperature for 20 minutes before measuring the luminescent signal of each well.

A375 LacZ = assay: Models of clinical B-Raf and MEK inhibitor resistance, CellTiter-Glo 72 hours: A375 LacZ; assay type: cell-based; conditions: Homo sapiens, A-375
Protocol: as §5

[10] = tested on: A375 V600E amp (BRAF V600E amp); assay: Models of clinical B-Raf and MEK inhibitor resistance, CellTiter-Glo 72 hours: A375 V600E amp; assay type: cell-based; conditions: Homo sapiens, A-375
Protocol: as §5, with “Human” for “Example 11: Efficacy studies in models of clinical B-Raf and MEK inhibitor resistance. Human”

T1 sequence (P28482 whole entry): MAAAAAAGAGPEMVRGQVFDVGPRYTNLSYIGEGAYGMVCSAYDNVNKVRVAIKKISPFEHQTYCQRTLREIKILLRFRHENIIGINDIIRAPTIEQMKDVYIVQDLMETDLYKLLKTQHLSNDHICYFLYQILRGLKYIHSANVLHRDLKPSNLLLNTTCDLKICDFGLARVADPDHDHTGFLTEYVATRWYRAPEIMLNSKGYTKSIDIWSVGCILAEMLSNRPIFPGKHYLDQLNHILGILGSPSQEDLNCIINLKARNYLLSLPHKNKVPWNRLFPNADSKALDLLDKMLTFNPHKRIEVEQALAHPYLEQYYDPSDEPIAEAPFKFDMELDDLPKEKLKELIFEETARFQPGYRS

`Cc1cc(-c2n[nH]c3cc4c(cc23)CN([C@@H]2CN(CC(F)(F)F)C[C@H]2c2ccccc2)C(=O)N4)ccn1` [Compound 304] gave an IC50 (ERK2 enzyme) of less than 500 nM.

`CC(c1ccccc1)c1cc2cc3c(-c4ccc(N5CCN(C)CC5)nc4)n[nH]c3cc2[nH]c1=O` (centres unmarked) [Compound 316] showed an IC50 (ERK2 enzyme) of less than 500 nM.

For `CC(c1ccccc1)c1cc2cc3c(-c4ccnc(N5CCN(C)CC5)c4)n[nH]c3cc2[nH]c1=O` (centres unmarked) [Compound 318], the IC50 (ERK2 enzyme) was less than 500 nM.

Compound `CC(c1ccccc1)c1cc2cc3c(-c4ccnc(N5CCOCC5)c4)n[nH]c3cc2[nH]c1=O` (centres unmarked) [Compound 325] has an IC50 (ERK2 enzyme) of less than 500 nM.

`CC(c1ccccc1)c1cc2cc3c(-c4ccncc4)n[nH]c3cc2[nH]c1=O` (centres unmarked) [Compound 326] showed an IC50 (ERK2 enzyme) of less than 500 nM.

`Cc1cc(-c2n[nH]c3cc4[nH]c(=O)c(C5CCCN(Cc6ccccc6)C5)cc4cc23)ccn1` (centres unmarked) [Compound 332] gave an IC50 (ERK2 enzyme) of less than 500 nM.

`CC(c1ccccc1)c1cc2cc3c(-c4cnn(C)c4)n[nH]c3cc2[nH]c1=O` (centres unmarked) [Compound 333] was tested, and the IC50 (ERK2 enzyme) was less than 500 nM.

For `CC(c1ccccc1)c1cc2cc3c(NC4CCOCC4)n[nH]c3cc2[nH]c1=O` (centres unmarked) [Compound 338], the IC50 (ERK2 enzyme) was less than 500 nM.

With `Cc1cc(-c2n[nH]c3cc4c(cc23)CN([C@@H]2CN(CC(F)(F)F)C[C@H]2c2ccccc2)C(=O)N4)cc(C)n1` [Compound 339] the IC50 (ERK2 enzyme) was less than 500 nM.

For `C[C@H](c1ccccc1)c1cc2cc3c(NC4CCOCC4)n[nH]c3cc2[nH]c1=O` [Compound 357], the IC50 (ERK2 enzyme) was less than 500 nM.

For `COc1ncc(-c2n[nH]c3cc4[nH]c(=O)c(C5CCCN(Cc6ccccc6)C5)cc4cc23)cn1` (centres unmarked) [Compound 364], the IC50 (ERK2 enzyme) was less than 500 nM.

For `O=C1Nc2cc3[nH]nc(-c4ccncc4)c3cc2CN1Cc1ccccc1` [KO-947], the “Tumor response (tumor volume)” value [1] was “only modest inhibition of tumor growth”, the “Tumor response (tumor volume)” value ([2]; all six animals, 120 mg/kg Q2D or 300 mg/kg QW, 40 days) was “robust tumor regression” and the “Animals with no evidence of remaining viable tumor” value ([2]; sixty days after dosing was discontinued) was 4 of 6. For the same compound, the “Tumor response when treatment was initiated” value ([3]; 120 mg/kg Q2D or 300 mg/kg QW, maintained for 25 days) was “regression and tumor stasis”, the “Time tumor stasis was maintained after dosing was discontinued” value ([3]; after 25 days on treatment) was 10 to 20 days and the “Decrease in size of retreated tumors” value ([3]; therapy restarted on day 56, subsequent 35 days) was 27-66%. The “Tumor response (tumor volume)” value [4] was “only modest inhibition of tumor growth”, the “Tumor response (tumor volume)” value [5] was “only modest inhibition of tumor growth” and the “Tumor response (tumor volume)” value [6] was “tumor regression was initially seen on a weekly schedule, with some regrowth late in the experiment resulting ultimately in tumor stasis”. The “Models responsive to treatment” value [7] was “Four out of six”, the “Animals with tumor regression” value [8] was 5 of 6 and the “Tumor response (tumor volume)” value [9] was “tumor regression”.

For `CC(=O)Nc1cccc(-n2c(=O)n(C3CC3)c(=O)c3c(Nc4ccc(I)cc4F)n(C)c(=O)c(C)c32)c1` [Trametinib], the IC50 (A375 NRAS Q61R) was 77 nM, the IC50 (A375 LacZ) was 7 nM and the IC50 [10] was 300 nM.

In the case of `CCCS(=O)(=O)Nc1ccc(F)c(C(=O)c2c[nH]c3ncc(-c4ccc(Cl)cc4)cc23)c1F` [Vemurafenib], the IC50 (A375 NRAS Q61R) is reported as greater than 10000 nM, the IC50 (A375 LacZ) is reported as 4200 nM and the IC50 [10] is reported as greater than 10000 nM.
